Measured values from PubChem BioAssay AID192 (DTP/NCI, 2004).
Several values for one entry are separate records, joined by “and”; a condition that tells them apart may be missing. Equal values may be shown once. Toxic doses and inconclusive results are not listed. The calls were made as follows: active = survival T/C of 150% or more; inactive = T/C below 125% in these data.

System: BDF1 mice, B16 melanoma ip, median survival T/C
Test: NCI In Vivo Anticancer Drug Screen. Data for tumor model B16 Melanoma (intraperitoneal) in B6D2F1 (BDF1) mice
Settings: endpoint: median survival time, higher = longer survival
In short: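 Values are ratios of treated (T) to vehicle-control (C) measurements of survival or tumor size in tumor-bearing mice.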

[1] = dose: 6.25 mg/kg/injection, schedule: Q01DX009 (ip), vehicle: saline with Tween-80
[2] = dose: 12.5 mg/kg/injection, schedule: Q01DX009 (ip), vehicle: saline with Tween-80
[3] = dose: 25.0 mg/kg/injection, schedule: Q01DX009 (ip), vehicle: saline with Tween-80
[4] = dose: 50.0 mg/kg/injection, schedule: Q01DX009 (ip), vehicle: saline with Tween-80
[5] = dose: 100.0 mg/kg/injection, schedule: Q01DX009 (ip), vehicle: saline
[6] = dose: 200.0 mg/kg/injection, schedule: Q01DX009 (ip), vehicle: saline
[7] = dose: 400.0 mg/kg/injection, schedule: Q01DX009 (ip), vehicle: saline
[8] = dose: 6.25 mg/kg/injection, schedule: Q01DX009 (ip), vehicle: saline
[9] = dose: 12.5 mg/kg/injection, schedule: Q01DX009 (ip), vehicle: saline
[10] = dose: 25.0 mg/kg/injection, schedule: Q01DX009 (ip), vehicle: saline
[11] = dose: 100.0 mg/kg/injection, schedule: Q01DX009 (ip), vehicle: saline with Tween-80
[12] = dose: 100.0 mg/kg/injection, schedule: Q01DX009 (ip), vehicle: Klucel (hydroxypropylcellulose) (HPC)
[13] = dose: 200.0 mg/kg/injection, schedule: Q01DX009 (ip), vehicle: Klucel (hydroxypropylcellulose) (HPC)
[14] = dose: 3.12 mg/kg/injection, schedule: Q01DX009 (ip), vehicle: Klucel (hydroxypropylcellulose) (HPC)
[15] = dose: 3.13 mg/kg/injection, schedule: Q01DX009 (ip), vehicle: saline with Tween-80
[16] = dose: 50.0 mg/kg/injection, schedule: Q01DX009 (ip), vehicle: saline

Measured: T/C

CC(C)(C)CC(C)(C)c1ccc(O)c(O)c1
inactive: [1] 98 % of control | [2] 90 % of control | [3] 88 % of control and 93 % of control

Nc1ccc(-c2c(N)ncc3ccccc23)cc1
inactive: [2] 101 % of control | [3] 104 % of control | [4] 103 % of control

CC(=O)CC(=O)NCc1ccncc1
inactive: [5] 118 % of control | [6] 112 % of control | [7] 116 % of control

C=CCc1c(C)ccc(C)c1OC
inactive: dose: 25.0 mg/kg/injection, schedule: Q04DX003 (ip), vehicle: Klucel (hydroxypropylcellulose) (HPC) 102 % of control | dose: 50.0 mg/kg/injection, schedule: Q04DX003 (ip), vehicle: Klucel (hydroxypropylcellulose) (HPC) 101 % of control | dose: 100.0 mg/kg/injection, schedule: Q04DX003 (ip), vehicle: Klucel (hydroxypropylcellulose) (HPC) 93 % of control

NC1CC1c1ccccc1 (centres undefined)
inactive: dose: 3.12 mg/kg/injection, schedule: Q01DX009 (ip), vehicle: saline 91 % of control | [8] 101 % of control | [9] 102 % of control | [10] 113 % of control

O=c1c(O)c(-c2ccccc2)oc2ccccc12
inactive: [11] 94 % of control | dose: 200.0 mg/kg/injection, schedule: Q01DX009 (ip), vehicle: saline with Tween-80 96 % of control | dose: 400.0 mg/kg/injection, schedule: Q01DX009 (ip), vehicle: saline with Tween-80 91 % of control | dose: 800.0 mg/kg/injection, schedule: Q01DX009 (ip), vehicle: saline with Tween-80 93 % of control

CC1Cc2c(Cl)cc(C(=O)NC(Cc3ccccc3)C(=O)O)c(O)c2C(=O)O1 (centres undefined)
inactive: dose: 0.12 mg/kg/injection, schedule: Q01DX009 (ip), vehicle: saline with Tween-80 112 % of control | dose: 0.25 mg/kg/injection, schedule: Q01DX009 (ip), vehicle: saline with Tween-80 119 % of control | dose: 0.5 mg/kg/injection, schedule: Q01DX009 (ip), vehicle: saline with Tween-80 114 % of control

CCOC(=O)CC(=O)c1ccccc1F
inactive: [12] 99 % of control | [13] 102 % of control | dose: 400.0 mg/kg/injection, schedule: Q01DX009 (ip), vehicle: Klucel (hydroxypropylcellulose) (HPC) 106 % of control

S=c1[nH]c2ccccc2[nH]1
inactive: dose: 1.56 mg/kg/injection, schedule: Q01DX009 (ip), vehicle: Klucel (hydroxypropylcellulose) (HPC) 91 % of control | [14] 90 % of control | dose: 6.25 mg/kg/injection, schedule: Q01DX009 (ip), vehicle: Klucel (hydroxypropylcellulose) (HPC) 95 % of control | dose: 12.5 mg/kg/injection, schedule: Q01DX009 (ip), vehicle: Klucel (hydroxypropylcellulose) (HPC) 86 % of control | dose: 25.0 mg/kg/injection, schedule: Q01DX009 (ip), vehicle: Klucel (hydroxypropylcellulose) (HPC) 100 % of control

CCOC(=O)CCCc1ccc(N=NN(C)C)cc1
inactive: dose: 1.56 mg/kg/injection, schedule: Q01DX009 (ip), vehicle: saline with Tween-80 102 % of control | [15] 105 % of control | [1] 100 % of control

Nc1nc(=S)c2[nH]cnc2[nH]1
inactive: dose: 0.25 mg/kg/injection, schedule: Q01DX009 (ip), vehicle: saline sonified 100 % of control | dose: 0.25 mg/kg/injection, schedule: Q01DX009 (ip), vehicle: suspension in saline 109 % of control | dose: 0.5 mg/kg/injection, schedule: Q01DX009 (ip), vehicle: saline sonified 112 % of control and 115 % of control | dose: 0.5 mg/kg/injection, schedule: Q01DX009 (ip), vehicle: suspension in saline 120 % of control | dose: 1.0 mg/kg/injection, schedule: Q01DX009 (ip), vehicle: saline sonified 100 % of control | dose: 1.0 mg/kg/injection, schedule: Q01DX009 (ip), vehicle: suspension in saline 105 % of control | dose: 2.0 mg/kg/injection, schedule: Q01DX009 (ip), vehicle: saline sonified 95 % of control and 105 % of control | dose: 2.0 mg/kg/injection, schedule: Q01DX009 (ip), vehicle: saline with Tween-80 111 % of control | dose: 2.0 mg/kg/injection, schedule: Q01DX009 (ip), vehicle: suspension in saline 107 % of control

NC(CCl)=NCC12CC3CC(CC(C3)C1)C2
inactive: dose: 3.0 mg/kg/injection, schedule: Q01DX009 (ip), vehicle: Klucel (hydroxypropylcellulose) (HPC) 110 % of control | [14] 100 % of control | dose: 6.0 mg/kg/injection, schedule: Q01DX009 (ip), vehicle: Klucel (hydroxypropylcellulose) (HPC) 100 % of control | dose: 12.0 mg/kg/injection, schedule: Q01DX009 (ip), vehicle: Klucel (hydroxypropylcellulose) (HPC) 107 % of control | dose: 24.0 mg/kg/injection, schedule: Q01DX009 (ip), vehicle: Klucel (hydroxypropylcellulose) (HPC) 102 % of control | dose: 48.0 mg/kg/injection, schedule: Q01DX009 (ip), vehicle: Klucel (hydroxypropylcellulose) (HPC) 120 % of control

CC(C)(C)OC(=O)N1CCCC1C(=O)N1CCCC1C(=O)Oc1ccccc1 (centres undefined)
inactive: [5] 121 % of control | [6] 110 % of control | [7] 114 % of control

CCOC(=O)C(CC)c1ccccc1 (centres undefined)
inactive: [4] 91 % of control | [11] 95 % of control

COc1ccc(C(C#N)CC(=O)c2ccc3c(c2)OCO3)cc1OC (centres undefined)
inactive: [5] 103 % of control | [6] 100 % of control | [7] 100 % of control

CC(=O)[O][Hg][c]1cc(-c2ccc(N=Nc3c(S(=O)(=O)O)cc4cccc(N)c4c3O)cc2)ccc1N=Nc1c(S(=O)(=O)O)cc2cccc(N)c2c1O
inactive: dose: 0.75 mg/kg/injection, schedule: Q01DX009 (ip), vehicle: saline with Tween-80 95 % of control | dose: 1.5 mg/kg/injection, schedule: Q01DX009 (ip), vehicle: saline with Tween-80 90 % of control | dose: 1.5 mg/kg/injection, schedule: Q04DX003 (ip), vehicle: saline with Tween-80 102 % of control | dose: 3.0 mg/kg/injection, schedule: Q04DX003 (ip), vehicle: saline with Tween-80 86 % of control

O=C(C(=O)c1cc(Br)ccc1O)c1cc(Br)ccc1O
inactive: [12] 96 % of control | [13] 106 % of control

C/C=C/C(=O)NCC(C(C)C)/[N+]([O-])=N/O (centres undefined)
inactive: [8] 100 % of control | [9] 104 % of control | [10] 100 % of control

Cc1cnc2c(=N)n(C(=O)C(F)(F)F)n(C)c2n1
inactive: [12] 90 % of control | [13] 94 % of control

CN(C)c1ncnc2c1ncn2C1OC(CO)C(N)C1O (centres undefined)
inactive: [10] 111 % of control | [16] 118 % of control

CCCCCCCCCCCCCCCC(=O)N(C/C=C/CN(CCCN(C)C)C(=O)CCCCCCCCCCCCCCC)CCCN(C)C
active: dose: 12.5 mg/kg/injection, schedule: Q04DX003 (ip), vehicle: saline with Tween-80 177 % of control | [3] 158 % of control | dose: 25.0 mg/kg/injection, schedule: Q04DX003 (ip), vehicle: saline with Tween-80 163 % of control | dose: 50.0 mg/kg/injection, schedule: Q04DX003 (ip), vehicle: saline with Tween-80 155 % of control
inactive: dose: 0.78 mg/kg/injection, schedule: Q01DX009 (ip), vehicle: saline with Tween-80 86 % of control | dose: 1.56 mg/kg/injection, schedule: Q01DX009 (ip), vehicle: saline 90 % of control | dose: 1.6 mg/kg/injection, schedule: Q01DX009 (ip), vehicle: saline with Tween-80 104 % of control | [15] 97 % of control | dose: 3.2 mg/kg/injection, schedule: Q01DX009 (ip), vehicle: saline with Tween-80 95 % of control | [1] 95 % of control | dose: 6.3 mg/kg/injection, schedule: Q01DX009 (ip), vehicle: saline with Tween-80 91 % of control

CC(C)CCC[C@@H](C)[C@H]1CC[C@H]2[C@@H]3CC=C4C[C@@H](OC(=O)Cc5ccc(N(CCCl)CCCl)cc5)CC[C@]4(C)[C@H]3CC[C@]12C
inactive: dose: 50.0 mg/kg/injection, schedule: Q01DX009 (oral), vehicle: saline 108 % of control | dose: 100.0 mg/kg/injection, schedule: Q01DX009 (oral), vehicle: saline 104 % of control | dose: 200.0 mg/kg/injection, schedule: Q01DX009 (oral), vehicle: saline 110 % of control | dose: 400.0 mg/kg/injection, schedule: Q01DX009 (oral), vehicle: saline 104 % of control | dose: 800.0 mg/kg/injection, schedule: Q01DX009 (oral), vehicle: saline 110 % of control

CNCCN(C)CCNC
inactive: [10] 98 % of control | [16] 89 % of control | [5] 95 % of control
